From patent publication US10604473B2, “Lipids that increase insulin sensitivity and methods of using the same” (Beth Israel Deaconess Medical Center, Inc., priority 2013, dated 2020)

How the values were obtained:
[1] = FAHFA biosynthesis (FA-CoA:HFA acyltransferase) assay in tissue lysates; assay type: biochemical; settings: 9-HSA and oleoyl-CoA 10 μM, increasing doses of inhibitor
Method: After first establishing that FA-CoA:HFA acyltransferase activity was membrane-localized in liver (not shown), membrane fractions from liver or WAT tissue lysate were isolated by ultracentrifugation, then resuspended the pellets in PBS buffer and diluted to 1 mg/ml protein concentration. […] Formation of 9-OAHSA was measured by MS/MS, with which the appearance of the parent ion m/z 563 was monitored.
In light of the above results acyltransferase families that have been reported to have a membrane-bound localization and to have the ability to conjugate FA-CoA to a hydrophobic alcohol were targeted. Two of the enzymes, DGAT1 and ACAT, had selective inhibitors that were commercially available, A922500 [20] and CI976 [21], which were used to test their ability to reduce FAHFA production in the biosynthesis assay (inhibitors purchased from Tocris Bioscience).

3T3-L1 adipocytes = test: Glucose transport in 3T3-L1 adipocytes; assay type: cell-based; settings: chronic treatment
Method: FIGS. 54A-D show glucose uptake regulation by PAHSAs and Glut4 translocation via GPR120. FIG. 54A is a bar graph showing insulin-stimulated glucose transport in 3T3-L1 adipocytes treated 9-PAHSA (20 μM) or vehicle (DMSO) control for 6 days. n=6 per group, *p<0.05 compared to vehicle by t-test. FIG. 54B is a bar graph showing insulin (10 nM)-stimulated glucose transport in 3T3-L1 adipocytes transfected with control siRNA or GPR120 siRNA and treated 5-PAHSA (10 μM), 9-PAHSA (10 μM) or vehicle (DMSO) control for 2 days. n=3 per group, *p<0.05 compared to DMSO+control siRNA or GPR120 siRNA alone, $p<0.05 compared to control siRNA or GPR120 siRNA+insulin and GPR120 siRNA+insulin+PAHSA by t-test. FIG. 54C is a panel showing Glut4 plasma membrane translocation in 3T3-L1 adipocytes transfected with control siRNA or GPR120 siRNA and treated with 9-PAHSA in the presence or absence of insulin. 6 separate experiments were carried out without RNAi and 3 experiments with RNAi; each experiment had greater than 50 cells per experimental condition. FIG. 54D is a bar graph showing quantification of Glut4 translocation in panel C. *p<0.05 compared to control siRNA+insulin and GPR120 siRNA+insulin+9-PAHSA by t-test. All data are presented as mean±s.e.m. See also FIG. 57.
For all cell culture experiments, FAHFAs were solubilized in DMSO at a concentration of 20 mM and further diluted in assay buffer or cell culture media to the working concentrations indicated for each assay. In all instances an equivalent volume of vehicle (DMSO) was added to control treatment groups.

STC-1 cells [2] = test: GLP-1 secretion from STC-1 enteroendocrine cells (ELISA); assay type: cell-based
Method: For the experiments summarized in FIG. 41 STC-1 cells were incubated with vehicle (DMSO), 9-PAHSA, 5-PAHSA or 9-OAHSA at the indicated concentrations or lineolic acid (100 uM) as a positive control. Media was harvested and GLP-1 was measured by ELISA.
For the experiments summarized in FIG. 42, the same protocol as described for FIG. 41 was used, except in this experiment a time course was performed. For both FIG. 41 and FIG. 42, for GLP-1 secretion STC1 cells were washed 3× with serum free culture media followed by stimulation with FAHFAs or vehicle at the indicated concentrations and timepoints. Levels of active GLP-1 were measured by ELISA.

STC-1 cells [3] = test: ERK phosphorylation in STC-1 cells (immunoblot); assay type: cell-based; settings: 15 minutes stimulation
Method: For the experiments summarized in FIG. 40, STC-1 cells were incubated with 9-PAHSA, 5-PAHSA or 9-OAHSA at the indicated concentrations. Cells were harvested and lysed and proteins were separated by SDS PAGE and transferred onto nitrocellulose filters. The phosphorylation of ERK and the amount of total ERK was determined by immunoblotting with antibodies specific for total or phosphor-ERK. DMSO was the control. For ERK phosphorylation, cells were serum deprived overnight and stimulated with FAHFAs or vehicle as indicated for 15 minutes followed by lysis in RIPA buffer and analysis by SDS-PAGE

[4] = FAHFA hydrolysis assay (9-PAHSA to 9-HSA), liver lysate
Method: To establish whether or not FAHFA can be enzymatically degraded, an LC-MS-based in vitro activity assay was developed to measure the hydrolysis of 9-PAHSA to 9-HSA. […] Liver lysate (1 mg/ml protein) was incubated with 100 μM 9-PAHSA at 37° C. for two hours. The reaction mixture was then extracted with one volume ethyl acetate, concentrated under nitrogen gas stream, and reconstituted in 1:1 chloroform:methanol for MS analysis.

[5] = test system: carboxyl ester lipase (CEL); test: FAHFA hydrolysis assay, CEL-transfected HEK293T cell lysate; assay type: biochemical
Method: Plasmid expression clones for these enzymes were obtained, which were under the control of the cytomegalovirus promoter (from the Cravatt lab), with which we transfected HEK293T cells to assess the ability of these enzymes to hydrolyze 9-PAHSA. For the activity assays, cell lysates were diluted according to the relative expression of the three clones according to ABP intensities.
(§1) The experiment was repeated with either liver or pancreas membrane lysate.

[6] = FAHFA hydrolysis assay, pancreas membrane lysate; assay type: biochemical
Excerpt: as §1

Compound: O=C(Nc1ccccc1)Nc1ccc(-c2ccc(C(=O)[C@@H]3CCC[C@H]3C(=O)O)cc2)cc1 [A922500]
- 9-OAHSA levels (FAHFA production) [1]: no change in 9-OAHSA levels

Compound: CCCCCCCCCCCCCCCC(=O)O [palmitic acid]
- insulin-stimulated glucose transport (3T3-L1 adipocytes): impaired insulin-stimulated glucose transport

Compound: CCCCCCCCCCC(C)(C)C(=O)Nc1c(OC)cc(OC)cc1OC [CI976]
- 9-OAHSA levels (FAHFA production) [1]: no change in 9-OAHSA levels

Compound: CCCCCCCCC(O)CCCCCCCCC(=O)O (stereo not drawn) [hydroxystearic acid]
- insulin-stimulated glucose transport (3T3-L1 adipocytes): impaired insulin-stimulated glucose transport

Compound: CCCCCCCC/C=C\CCCCCCCC(=O)OC(CCCCCCCCC)CCCCCCCC(=O)O (stereo not drawn) [9-OAHSA]
- GLP-1 secretion (STC-1 cells [2]): induce GLP-1 secretion
- ERK phosphorylation (STC-1 cells [3]): induce ERK phosphorylation

Compound: C[C@H](CCC(=O)NCCS(=O)(=O)O)[C@H]1CC[C@H]2[C@@H]3[C@H](O)C[C@@H]4C[C@H](O)CC[C@]4(C)[C@H]3C[C@H](O)[C@]12C [NaTC, sodium taurocholate]
- bile-salt activation of FAHFA hydrolysis [4]: not enhanced
- bile-salt activation of FAHFA hydrolysis [5]: enhanced
- bile-salt activation of FAHFA hydrolysis [6]: markedly increased
